Source: paper PMC6467259 (Journal of the American Chemical Society, 2018)

Target: PagF (Planktothrix agardhii, UniProt F5B6Z0, F222A)
Assay: crystal structure of the complex, […] Å
Settings: MgCl2; isoprene donor-binding site

CC(C)=CCC/C(C)=C/COP(=O)(O)OP(=O)(O)O [GPP]
crystal structure of the complex, 1.85 Å: crystals of Phe222→Ala PagF in complex with GPP and MgCl2
